In patent US9649285B2, “Treatment of medium-chain acyl-CoA dehydrogenase deficiency” (UNIVERSITY OF PITTSBURGH—OF THE COMMONWEALTH SYSTEM OF …, priority 2012, dated 2017):
Residue numbers refer to the chain shown, from its start.

Legend:
[1] = target: T1, partially purified recombinant human LCAD (Homo sapiens, UniProt P28330); experiment: ETF fluorescence reduction assay with LCAD; assay type: biochemical
T1 construct: made in house
T1 sequence (P28330 31-430): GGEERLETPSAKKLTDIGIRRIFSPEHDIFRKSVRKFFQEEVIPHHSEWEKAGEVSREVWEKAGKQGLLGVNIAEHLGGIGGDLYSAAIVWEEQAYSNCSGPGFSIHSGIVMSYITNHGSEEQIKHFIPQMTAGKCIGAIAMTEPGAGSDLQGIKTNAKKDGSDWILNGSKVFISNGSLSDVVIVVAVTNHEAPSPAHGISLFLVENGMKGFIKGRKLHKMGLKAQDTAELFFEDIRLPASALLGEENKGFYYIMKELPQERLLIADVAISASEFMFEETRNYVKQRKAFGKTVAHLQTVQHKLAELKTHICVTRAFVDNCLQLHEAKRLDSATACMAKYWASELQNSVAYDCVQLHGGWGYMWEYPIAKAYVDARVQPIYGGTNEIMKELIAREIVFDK

[2] = target: T2, purified recombinant human MCAD (Homo sapiens, UniProt P11310); experiment: Formation of the charge transfer complex (reductive half-reaction), absorbance at 447/570 nm; assay type: binding; details: Stockell plot, substrate:subunit ratio 1:1; enzyme 25.2 μM; anaerobic, pH 8.0; read-out: apparent dissociation constant (KD app)
T2 construct: made in house; host or cells: E. coli JM105, co-expressed with GroEL/GroES
T2 sequence (P11310 26-421): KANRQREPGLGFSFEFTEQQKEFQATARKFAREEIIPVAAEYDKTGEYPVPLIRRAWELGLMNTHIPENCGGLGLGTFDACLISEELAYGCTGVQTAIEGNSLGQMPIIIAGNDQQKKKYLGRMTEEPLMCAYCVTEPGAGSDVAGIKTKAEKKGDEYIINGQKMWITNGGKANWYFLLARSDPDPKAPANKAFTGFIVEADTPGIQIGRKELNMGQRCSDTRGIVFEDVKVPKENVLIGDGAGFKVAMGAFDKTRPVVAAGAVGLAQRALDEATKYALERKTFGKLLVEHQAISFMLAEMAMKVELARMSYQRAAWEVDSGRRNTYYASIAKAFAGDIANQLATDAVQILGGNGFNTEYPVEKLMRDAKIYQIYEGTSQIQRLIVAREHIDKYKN
Description: (§1) Purification of Recombinant Human MCAD.
(§2) Expression and purification of recombinant human MCAD was performed as previously described for isovaleryl-CoA dehydrogenase with minor modifications (18). E. coli JM105 cells (Amersham Biosciences Corp; Piscataway, N.J.) containing the human MCAD high expression vector pKeMCAD (19) and a GroEL/GroES expression plasmid were grown overnight in a 200-ml LB broth pre-culture that was used to inoculate 4×2-L cultures in 2-YT broth. The cells were left to grow overnight at 37° C. with shaking and MCAD expression was induced the next morning using IPTG at a final concentration of 0.5 mM for 3 hrs. Cells were harvested by centrifugation and resuspended at 4° C. in 2:1 weight to volume of 100 mM potassium phosphate pH 8.0, 150 mM EDTA. Cells were then lysed by sonication on ice. […]
Formation of the charge transfer ternary complex was monitored by observing the increase in absorbance at the 570 nm area, concomitant with the decrease of absorbance at 447 nm area, of the purified MCAD in 120 mM potassium phosphate spectrum under anaerobic conditions using a Jasco V-650 Spectrophotometer. […] Ten seconds of equilibration time were allowed after mixing and the sample was scanned for UV/Visible light absorbance at 250 to 800 nm. […] The “apparent” productive-binding constant (Kd app) was calculated with the following equation: […]

[3] = target: T3, MCAD K304E mutant (Homo sapiens, UniProt P11310, K329E); details: reported in ref. 27; cited from earlier work
T3 sequence (P11310 26-421 K329E): T2 sequence (P11310 26-421) with K304E

[4] = system: extracts from wild type fibroblast cells (GM085401); experiment: ETF fluorescence reduction assay of cell extract, wild type fibroblasts; assay type: biochemical, human; details: 30 μM substrate
Description: (§3) Fibroblast Cell Culture and Extract Preparation.
(§4) Wild type and MCAD deficient cells (homozygous for the K304E mutation) with the designation GM085401 and GM07844, respectively, were obtained form Coriell Institute for Medical Research, Camden, N.J. Cells were cultured in DMEM medium supplemented with glutamine and ampicillin and streptomycin, and 20% fetal bovine serum. Cells were harvested from a T175 flask by sonication with a buffer consisting of 50 mM Tris buffer and 10 mM EDTA, pH 8.0. The cell debris was removed by centrifugation and the cell free extract was assayed for protein and enzyme activity as described below.
(§5) ETF Fluorescence Reduction Assay.
(§6) The ETF reduction assay was performed using a Jasco FP-6300 spectrofluorometer (Easton, Md.) with a cuvette holder heated with circulating water at 32° C. The assay was otherwise performed as described (22), at the indicated substrate concentrations. The enzyme was diluted 1200-fold into a buffer containing 50 mM Tris, pH 8.0, 5 mM EDTA and 50% glycerol, and […] were used for each assay. The ETF concentration in the reaction mixture was 2 μM. Spectra Manager 2 software (Jasco Inc) was used to collect data and calculate reaction rate and Microsoft Excel was used to calculate the kinetic parameters.

[5] = system: extract from fibroblast cells deficient in MCAD (GM07844, homozygous K304E); experiment: ETF fluorescence reduction assay of cell extract, MCAD deficient fibroblasts; assay type: biochemical, human; details: similar amounts of extract
Description: as §3, §4, §5, §6

[6] = target: T4, recombinant human MCAD (Homo sapiens, UniProt P11310); experiment: ETF fluorescence reduction assay with purified MCAD (oxidative half-reaction); assay type: biochemical
T4 construct: made in house; host or cells: E. coli JM105, co-expressed with GroEL/GroES
T4 sequence (P11310 26-421): T2 sequence (P11310 26-421)
Description: as §1
as §2, with “ice. Including high amounts of EDTA in the cell lysis buffer can protect residues with groups, e.g., cysteine thiols and methionine sulfide groups, vulnerable to modification by oxygen reactive species generated during sonication cell suspension. This was effective in improving enzyme preparations resulting higher specific activity and consistent kinetic behavior. Cellular debris was removed by centrifugation first at 250,000×g for 60 minutes each.” for “ice.”
(§7) ETF Fluorescence Reduction Assay. […]

[7] = target: T5, Purified SCAD (Homo sapiens, UniProt P16219); experiment: ETF fluorescence reduction assay with SCAD; assay type: biochemical
T5 construct: made in house
T5 sequence (P16219 25-412): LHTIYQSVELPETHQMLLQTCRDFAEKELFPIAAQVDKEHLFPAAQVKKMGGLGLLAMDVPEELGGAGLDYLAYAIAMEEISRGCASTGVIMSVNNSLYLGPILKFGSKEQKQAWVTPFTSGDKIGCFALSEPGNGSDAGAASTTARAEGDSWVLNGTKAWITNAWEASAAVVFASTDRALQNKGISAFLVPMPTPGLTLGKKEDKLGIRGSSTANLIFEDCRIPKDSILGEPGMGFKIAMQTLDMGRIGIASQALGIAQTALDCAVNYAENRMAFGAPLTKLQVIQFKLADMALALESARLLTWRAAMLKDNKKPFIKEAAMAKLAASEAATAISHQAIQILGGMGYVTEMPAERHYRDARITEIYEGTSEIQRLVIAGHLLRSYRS
Description: as §2, with “ice. Including high amounts of EDTA in the cell lysis buffer can protect residues with groups, e.g., cysteine thiols and methionine sulfide groups, vulnerable to modification by oxygen reactive species generated during sonication cell suspension. This was effective in improving enzyme preparations resulting higher specific activity and consistent kinetic behavior. Cellular debris was removed by centrifugation first at 250,000×g for 60 minutes each. The final supernatant was dialyzed for 4 hours with vigorous stirring in 50 mM potassium phosphate pH 8.0, at 4° C.” for “ice.”
as §7

[8] = target: T6, Purified ACAD9 (Homo sapiens, UniProt Q9H845); experiment: ETF fluorescence reduction assay with ACAD9; assay type: biochemical
T6 construct: made in house
T6 sequence (Q9H845 38-621): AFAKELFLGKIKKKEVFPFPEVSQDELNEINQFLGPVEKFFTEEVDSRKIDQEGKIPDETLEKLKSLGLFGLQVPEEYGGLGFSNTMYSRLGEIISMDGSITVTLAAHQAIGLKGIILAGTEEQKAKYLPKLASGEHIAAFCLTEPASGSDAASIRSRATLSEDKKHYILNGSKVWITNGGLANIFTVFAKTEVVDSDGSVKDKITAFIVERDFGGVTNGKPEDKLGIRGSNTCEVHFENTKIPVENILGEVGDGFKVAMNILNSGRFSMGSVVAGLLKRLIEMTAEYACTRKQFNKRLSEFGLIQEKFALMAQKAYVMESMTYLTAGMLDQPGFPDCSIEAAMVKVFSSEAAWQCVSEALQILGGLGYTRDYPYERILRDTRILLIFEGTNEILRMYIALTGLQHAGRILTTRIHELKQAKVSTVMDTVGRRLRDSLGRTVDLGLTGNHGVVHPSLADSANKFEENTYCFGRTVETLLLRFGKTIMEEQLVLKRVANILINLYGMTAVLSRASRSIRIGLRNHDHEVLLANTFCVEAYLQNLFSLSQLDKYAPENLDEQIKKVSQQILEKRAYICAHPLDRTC

SMILES | activity of LCAD with substrate [1] | Kd [2] [nM] | thermal stability of the MCAD K304E mutant [3] | Enzyme specific activity [4] | Enzyme specific activity [5] | activity of MCAD with substrate [6] | activity of SCAD with substrate [7] | activity of ACAD9 with substrate [8]
CC(C)CCCC(C)C(=O)SCCNC(=O)CCNC(=O)[C@H](O)C(C)(C)COP(=O)(O)OP(=O)(O)OC[C@H]1O[C@@H](n2cnc3c(N)ncnc32)[C@H](O)[C@@H]1OP(=O)(O)O (stereo partly drawn) [2,6-dimethylheptanoyl-CoA] | active |  |  |  |  |  |  | 
CCCCCCCCCCCC(=O)SCCNC(=O)CCNC(=O)[C@H](O)C(C)(C)COP(=O)(O)OP(=O)(O)OC[C@H]1O[C@@H](n2cnc3c(N)ncnc32)[C@H](O)[C@@H]1OP(=O)(O)O [C12-CoA] | active |  |  |  |  |  |  | 
CCCCCCCC(=O)SCCNC(=O)CCNC(=O)[C@H](O)C(C)(C)COP(=O)(O)OP(=O)(O)OC[C@H]1O[C@@H](n2cnc3c(N)ncnc32)[C@H](O)[C@@H]1OP(=O)(O)O [octanoyl-CoA] |  | 120 | provide thermal stability | 4.01 (±1.34) nmoles ETF reduced x min^−1 x mg^−1 | No activity |  |  | 
CCCCCCCCCCCCCCCC(=O)SCCNC(=O)CCNC(=O)[C@H](O)C(C)(C)COP(=O)(O)OP(=O)(O)OC[C@H]1O[C@@H](n2cnc3c(N)ncnc32)[C@H](O)[C@@H]1OP(=O)(O)O [palmitoyl-CoA] |  |  |  | 9.10 (±2.13) nmoles ETF reduced x min^−1 x mg^−1 | 3.91 (±1.34) nmoles ETF reduced x min^−1 x mg^−1 |  |  | 
CC(C)(COP(=O)(O)OP(=O)(O)OC[C@H]1O[C@@H](n2cnc3c(N)ncnc32)[C@H](O)[C@@H]1OP(=O)(O)O)[C@@H](O)C(=O)NCCC(=O)NCCSC(=O)CCCc1ccccc1 [phenylbutyryl-CoA] | not active | 2160 |  | 3.41 (±0.53) nmoles ETF reduced x min^−1 x mg^−1 | No activity | no activity | no activity | no activity
